Article PMC4350841 (2015)

Legend:
[1] = test system: U-deletion gRNA/pre-mRNA hybrid RNA (pre-cleaved) (RNA, duplex, 3'-end amino modification in two of the oligoribonucleotides used (which ones stated only in S1 Table)) GGAAAGGGAAAGUUGUGAUUUU/GCGAGUUAUAGAAUA/GGUUCUAUAACUCGCUCACAACUUUCCCUUUCC; assay: isothermal titration calorimetry; details: 30 mM KCl, 10 mM Mg(OAc)2; 20 mM HEPES/KOH pH 7.5, 0.5 mM DTT, 27°C; 2 μM RNA; macroscopic, 3 sites
[2] = test system: U-deletion gRNA/pre-mRNA hybrid RNA (pre-cleaved) (RNA, duplex, 3'-end amino modification in two of the oligoribonucleotides used (which ones stated only in S1 Table)) GGAAAGGGAAAGUUGUGAUUUU/GCGAGUUAUAGAAUA/GGUUCUAUAACUCGCUCACAACUUUCCCUUUCC; assay: circular dichroism titration, 273 nm; details: Na+ (65 mM NaCl, 10 mM Na cacodylate); pH 6.8, 27°C; 12 μM RNA; neomycin up to 0.6 mM; A-form retained
[3] = test system: U-insertion gRNA/pre-mRNA hybrid RNA (pre-cleaved) (RNA, duplex, 3'-end amino modification in two of the oligoribonucleotides used (which ones stated only in S1 Table)) GGAAGUAUGAGACGUAGG/AUUGGAGUUAUAG/CUAUAACUCCGAUAAACCUACGUCUCAUACUUCC; assay: UV melting, 260 nm; details: Na+ (5 mM Na cacodylate; NaCl not stated); pH 6.8; 1 μM RNA; neomycin 1.3 μM or 13 μM; two helices; 11–13 over both RNAs
[4] = test system: U-deletion gRNA/pre-mRNA hybrid RNA (pre-cleaved) (RNA, duplex, 3'-end amino modification in two of the oligoribonucleotides used (which ones stated only in S1 Table)) GGAAAGGGAAAGUUGUGAUUUU/GCGAGUUAUAGAAUA/GGUUCUAUAACUCGCUCACAACUUUCCCUUUCC; assay: UV melting, 260 nm; details: Na+ (5 mM Na cacodylate; NaCl not stated); pH 6.8; 1 μM RNA; neomycin 1.3 μM or 13 μM; two helices; 11–13 over both RNAs
[5] = test system: U-insertion gRNA/pre-mRNA hybrid RNA (pre-cleaved) (RNA, duplex, 3'-end amino modification in two of the oligoribonucleotides used (which ones stated only in S1 Table)) GGAAGUAUGAGACGUAGG/AUUGGAGUUAUAG/CUAUAACUCCGAUAAACCUACGUCUCAUACUUCC; assay: circular dichroism titration, 273 nm; details: Na+ (65 mM NaCl, 10 mM Na cacodylate); pH 6.8, 27°C; 12 μM RNA; neomycin up to 0.6 mM; A-form retained
[6] = test system: U-insertion gRNA/pre-mRNA hybrid RNA (pre-cleaved) (RNA, duplex, 3'-end amino modification in two of the oligoribonucleotides used (which ones stated only in S1 Table)) GGAAGUAUGAGACGUAGG/AUUGGAGUUAUAG/CUAUAACUCCGAUAAACCUACGUCUCAUACUUCC; assay: isothermal titration calorimetry; details: 30 mM KCl, 10 mM Mg(OAc)2; 20 mM HEPES/KOH pH 7.5, 0.5 mM DTT, 27°C; 2 μM RNA; macroscopic, 3 sites

SMILES: NC[C@@H]1O[C@H](O[C@H]2[C@@H](O)[C@H](O[C@@H]3[C@@H](O)[C@H](N)C[C@H](N)[C@H]3O[C@H]3O[C@H](CN)[C@@H](O)[C@H](O)[C@H]3N)O[C@@H]2CO)[C@H](N)[C@@H](O)[C@@H]1O
- Kd [1]: 1.0 µM
- binding [2]: yes
- binding [3]: yes
- binding [4]: yes
- binding [5]: yes
- Kd [6]: 1.1 µM
